Values of other authors as cited in PMC4984525 (Cancer, 2011).

Tested on: patients with resistant ovarian cancer
Settings: preliminary results of a Phase 2 trial; cited from earlier work

Cc1ccc(C(=O)N(CCCN)[C@@H](c2nc3cc(Cl)ccc3c(=O)n2Cc2ccccc2)C(C)C)cc1 [ispinesib]
clinical activity: has clinical activity
